Reference: patent publication US20220273007A1, “FUNCTIONAL FOOD FOR PREVENTING OR IMPROVING DYSURIA” (MARUHACHI MURAMATSU, INC., priority 2019, published 2022)

Columns and labels:
[1] = system: rat bladder smooth muscle; assay: Organ bath assay: 80 mM KCl contractile inhibition assay
Protocol: The concentration of each fatty acid was set according to the amount thereof present in a 95% ethanol extract of akamoku (Japan Food Research Laboratories; JFRL quantitative analysis). […] Ethanol was used as a control. As in the example described above, 80 mM KCl, a contraction inducer, was also added to induce contraction. The tension (contractile force) of slices of rat bladder smooth muscle was then measured to evaluate contraction inhibition effects. […]
The maximum concentration of each fatty acid was set according to the amount thereof present in a 95% ethanol extract of akamoku (JFRL quantitative analysis). Concentrations of 7.1 μg/mL EPA, 21.3 μg/mL EPA, 71 μg/mL EPA, 4.7 μg/mL stearidonic acid, 14.1 μg/mL stearidonic acid, and 47 μg/mL stearidonic acid were set. As in the examples described above, 80 mM KCl, a contraction inducer, was also added to induce contraction. The tension (contractile force) of slices of rat bladder smooth muscle was then measured to evaluate contraction inhibition effects.

[2] = system: acetic-acid-induced pollakiuria model rats; assay: In vivo assay (cystometry) using acetic-acid-induced pollakiuria model rats; set-up: species or system rat; conditions: 0.5 mg/kg oral (MC solution)
Protocol: In this experiment, 0.1% acetic acid diluted with normal saline was directly injected into the bladders of urethane-anesthetized rats to induce bladder hypersensitivity and create model rats having symptoms of acute (or chronic) pollakiuria, and in vivo assays were performed using these acetic-acid-induced pollakiuria model rats. […] In this way, the effects of the 95% ethanol extract of akamoku upon pollakiuric states in rats were investigated.
control (vehicle)=0.5% methyl cellulose (MC); and akamoku extract=50 mg/mL MC solution of akamoku extract.
• Maximum intravesical pressure (voiding pressure) • Base pressure • Threshold pressure • Voiding interval • Volume per void
Using the model rats with symptoms of acute (chronic) pollakiuria created in experiment 13, a 50 mg/mL MC solution of 50% ethanol extract of akamoku was orally administered to the model rats (n=7). In the graphs in FIG. 18, measured parameters are the voiding intervals, volume per void, and voiding frequency per unit of time of the rats, and pollakiuria-symptomatic model rats are compared with control rats receiving 0.5% methyl cellulose (MC) solution. In this way, the effects of the 50% ethanol extract of akamoku upon pollakiuric states in rats are investigated.
Using the model rats with symptoms of acute (chronic) pollakiuria created in experiment 13, a 50 mg/mL aqueous solution of aqueous akamoku extract was orally administered to the model rats. In the graphs in FIG. 19, measured parameters are the voiding intervals, volume per void, and voiding frequency per unit of time of the rats, compared with control rats receiving ultrapure water. In this way, the effects of the aqueous akamoku extract upon pollakiuric states in rats are investigated.
Using the model rats with symptoms of acute (chronic) pollakiuria created in experiment 13, 0.5 mg/kg akamoku-derived fucoxanthin Fx (MC solution) was orally administered to the model rats. […] In the graphs in FIG. 20, measured parameters are the voiding intervals, volume per void, and voiding frequency per unit of time of the rats, compared with control rats receiving 0.5% methyl cellulose (MC) solution.

How did the “average contraction compared to 100% uninhibited contraction” value ([1]; 47 μg/mL, 80 mM KCl) turn out when `CC/C=C\C/C=C\C/C=C\C/C=C\CCCCC(=O)O` [stearidonic acid] was run?
Its value is 75.6%.

What about the activity at 4.7 µg/mL ([1]; Rattus norvegicus, 4.7 μg/mL, 80 mM KCl, read-out: average contraction compared to 100% uninhibited contraction) of the same compound?
Its activity at 4.7 µg/mL is 87.8%.

What about the activity at 14.1 µg/mL ([1]; Rattus norvegicus, 14.1 μg/mL, 80 mM KCl, read-out: average contraction compared to 100% uninhibited contraction) of the same compound?
Its activity at 14.1 µg/mL is 89.5%.

What about the activity at 47 µg/mL ([1]; Rattus norvegicus, 47 μg/mL, 80 mM KCl, read-out: average contraction compared to 100% uninhibited contraction) of the same compound?
Its activity at 47 µg/mL is 68.5%.

And the “inhibition of 80 mM KCl contraction” value ([1]; fatty acid at amount present in 95% ethanol extract of akamoku (EPA 71 μg/mL, stearidonic acid 47 μg/mL))?
Its value is “significantly inhibited contraction”.

What does the source list for `CC(=O)O[C@H]1CC(C)(C)C(=C=C/C(C)=C/C=C/C(C)=C/C=C/C=C(C)/C=C/C=C(\C)C(=O)C[C@@]23O[C@]2(C)C[C@@H](O)CC3(C)C)[C@](C)(O)C1` [akamoku-derived fucoxanthin, fucoxanthin]?
improvement in 0.1% acetic-acid-induced pollakiuria [2]: significant improvement; voiding frequency per unit of time [2]: decreased; voiding interval [2]: tended to increase; volume per void [2]: increased

How did the activity at 36 µg/mL ([1]; Rattus norvegicus, 36 μg/mL, 80 mM KCl, read-out: average contraction compared to 100% uninhibited contraction) turn out when `CC/C=C\C/C=C\C/C=C\CCCCCCCC(=O)O` [α-linolenic acid] was run?
The activity at 36 µg/mL was 86.8%.

How did the “average contraction compared to 100% uninhibited contraction” value ([1]; 71 μg/mL, 80 mM KCl) turn out when `CC/C=C\C/C=C\C/C=C\C/C=C\C/C=C\CCCC(=O)O` [EPA, eicosapentaenoic acid] was run?
The value was 73.3%.

What about the activity at 7.1 µg/mL ([1]; Rattus norvegicus, 7.1 μg/mL, 80 mM KCl, read-out: average contraction compared to 100% uninhibited contraction) of the same compound?
Its activity at 7.1 µg/mL is 91.1%.

And the activity at 21.3 µg/mL ([1]; Rattus norvegicus, 21.3 μg/mL, 80 mM KCl, read-out: average contraction compared to 100% uninhibited contraction)?
Its activity at 21.3 µg/mL is 87.2%.

And the activity at 71 µg/mL ([1]; Rattus norvegicus, 71 μg/mL, 80 mM KCl, read-out: average contraction compared to 100% uninhibited contraction)?
The activity at 71 µg/mL was 78.2%.

For `CCCCC/C=C\C/C=C\C/C=C\C/C=C\CCCC(=O)O` [arachidonic acid], which activity at 44 µg/mL ([1]; Rattus norvegicus, 44 μg/mL, 80 mM KCl, read-out: average contraction compared to 100% uninhibited contraction) is on record?
Its activity at 44 µg/mL is 82%.
